The subject of series [1] is WI-38 cells (AID negative). As to the kind of experiment: Primary screening cell killing assay repeated in WI-38 cells (AID negative). Format: cell-based. The settings on record: Homo sapiens, 168 h, cell death on Day 7, Cell-Titer Glo. Summed up: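 Cell-killing counter-screen in AID-negative WI-38 cells, probing RAD51 inhibition via AID/RAD51 synthetic lethality. Viability luminescence (RLU) was media-subtracted, normalized to DMSO wells, and converted to percent kill (1 − normalized RLU) × 100; EC50 came from non-linear regression on a semi-log scale.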

Series [2] in a line: Human liver microsome stability. Type of series: in vitro ADME. The settings on record: human liver microsomes; for half-life / microsomal CLint: 37° C., 45 minutes; for microsomal CLint: read-out: Clearance (μg/min/mg). As for the experimental part:
The stability of the claimed compounds was determined in the presences of human liver microsomes. The compounds were incubated with the microsomes at 37° C. for 45 minutes. Samples were analyzed using LC-MS/MS. Data analysis included half-life, clearance rate, and the percentage of hepatic blood flow (% QH) for each of the compounds in the different species.
Background: Microsomes from liver hold many membrane-bound enzymes, among them those of drug oxidation.

Where only a bound is given, the exact number is not on record here.

The molecule `CC(C)OC(=O)N[C@H]1CC[C@H](c2ncc(-c3ccc(NC(=O)NCc4ccccc4)cc3S(=O)(=O)NC(C)(C)C)s2)CC1` [Ex. 66A, trans-isopropyl N-[4-[5-[4-(benzylcarbamoylamino)-2-(tert-butylsulfamoyl)phenyl]thiazol-2-yl]cyclohexyl]carbamate] came in with an EC50 in series [1] greater than 1000 nM. Also, in series [2], the “% QH (percentage of hepatic blood flow)” value was determined as 49.6%, the half-life came out at 1.29 h and the microsomal CLint is 18.2 µL/min/mg.

Molecule `CC(C)OC(=O)Nc1ccc(-c2cnc([C@H]3CC[C@H](NC(=O)OC(C)C)CC3)s2)c(S(=O)(=O)NC(C)(C)C)c1` [Ex. 67A, trans-isopropyl N-[3-(tert-butylsulfamoyl)-4-[2-[4-(isopropoxycarbonylamino)cyclohexyl]thiazol-5-yl]phenyl]carbamate] yielded an EC50 in series [1] greater than 1000 nM. For the same molecule, in series [2], the “% QH (percentage of hepatic blood flow)” value was less than 20.3%, the half-life was greater than 5 h and the microsomal CLint is less than 4.6 µL/min/mg.

What is called EC50 is the concentration that produces a half-maximal response. A word on the half-life: it is the time in which the quantity being followed falls by half. Low values mean fast loss, high ones slow loss.

These data come from patent US10336746B1, “RAD51 inhibitors” (Cyteir Therapeutics, Inc., priority 2017, dated 2019).
